Key:
[1] = target: T1, ALK (L1196M) (Homo sapiens, UniProt Q9UM73, L1196M); assay: scanMAX Kinase analysis panel (DiscoverX); assay type: binding; conditions: 1 μM in DMSO
T1 construct: purchased DiscoverX
Text: (§1) [(Example Compound−Positive Control)/(Negative Control−Positive Control)×100]

[2] = target: T2, CAMKK2 (Homo sapiens, UniProt Q96RR4); assay: scanMAX Kinase analysis panel (DiscoverX); assay type: binding; conditions: 1 μM in DMSO
T2 construct: purchased DiscoverX
Text: as §1

[3] = target: T3, PLK4 (Homo sapiens, UniProt O00444); assay: scanMAX Kinase analysis panel (DiscoverX); assay type: binding; conditions: 1 μM in DMSO
T3 construct: purchased DiscoverX scanMAX Kinase analysis panel
T3 sequence (O00444 whole entry): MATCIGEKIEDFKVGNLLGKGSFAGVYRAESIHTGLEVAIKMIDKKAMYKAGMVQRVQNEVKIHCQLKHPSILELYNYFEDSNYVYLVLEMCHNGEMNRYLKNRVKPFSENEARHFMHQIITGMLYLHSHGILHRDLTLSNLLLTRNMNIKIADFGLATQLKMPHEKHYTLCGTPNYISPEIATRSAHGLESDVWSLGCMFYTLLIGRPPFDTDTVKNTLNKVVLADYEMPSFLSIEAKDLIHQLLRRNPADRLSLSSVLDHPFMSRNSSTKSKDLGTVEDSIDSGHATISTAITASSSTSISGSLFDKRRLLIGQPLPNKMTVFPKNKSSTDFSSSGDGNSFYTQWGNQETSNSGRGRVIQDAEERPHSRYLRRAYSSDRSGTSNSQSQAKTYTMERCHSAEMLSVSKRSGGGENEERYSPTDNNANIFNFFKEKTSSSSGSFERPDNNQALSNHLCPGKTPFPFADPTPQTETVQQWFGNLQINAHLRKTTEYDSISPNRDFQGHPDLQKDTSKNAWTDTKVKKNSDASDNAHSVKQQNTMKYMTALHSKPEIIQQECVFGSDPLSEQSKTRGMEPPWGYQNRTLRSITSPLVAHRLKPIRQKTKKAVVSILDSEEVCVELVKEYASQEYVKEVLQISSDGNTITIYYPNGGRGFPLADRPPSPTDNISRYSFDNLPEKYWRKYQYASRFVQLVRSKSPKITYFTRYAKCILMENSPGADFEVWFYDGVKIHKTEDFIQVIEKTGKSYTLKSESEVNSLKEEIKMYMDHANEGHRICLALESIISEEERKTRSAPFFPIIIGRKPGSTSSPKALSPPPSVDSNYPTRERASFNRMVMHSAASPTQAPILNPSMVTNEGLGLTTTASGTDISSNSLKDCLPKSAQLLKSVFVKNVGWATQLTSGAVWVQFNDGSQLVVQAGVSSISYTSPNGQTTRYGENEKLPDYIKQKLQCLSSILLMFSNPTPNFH
Text: as §1

[4] = target: T4, LTK (Homo sapiens, UniProt P29376); assay: scanMAX Kinase analysis panel (DiscoverX); assay type: binding; conditions: 1 μM in DMSO
T4 construct: purchased DiscoverX
Text: as §1

[5] = target: T5, CSNK1A1 (Homo sapiens, UniProt P48729); assay: scanMAX Kinase analysis panel (DiscoverX); assay type: binding; conditions: 1 μM in DMSO
T5 construct: purchased DiscoverX
T5 sequence (P48729 whole entry): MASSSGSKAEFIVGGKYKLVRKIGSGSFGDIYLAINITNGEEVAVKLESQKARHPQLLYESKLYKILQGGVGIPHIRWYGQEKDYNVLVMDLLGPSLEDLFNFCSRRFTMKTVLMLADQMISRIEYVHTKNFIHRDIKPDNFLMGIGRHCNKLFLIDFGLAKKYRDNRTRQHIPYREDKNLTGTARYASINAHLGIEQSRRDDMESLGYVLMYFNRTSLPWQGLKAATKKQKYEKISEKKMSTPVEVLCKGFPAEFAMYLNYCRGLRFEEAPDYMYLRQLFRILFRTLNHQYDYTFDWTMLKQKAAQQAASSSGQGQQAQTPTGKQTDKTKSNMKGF
Text: as §1

[6] = target: T6, CAMK2D (Homo sapiens, UniProt Q13557); assay: scanMAX Kinase analysis panel (DiscoverX); assay type: binding; conditions: 1 μM in DMSO
T6 construct: purchased DiscoverX
Text: as §1

[7] = target: T7, ALK(C1156Y) (Homo sapiens, UniProt Q9UM73, C1156Y); assay: scanMAX Kinase analysis panel (DiscoverX); assay type: binding; conditions: 1 μM in DMSO
T7 construct: purchased DiscoverX
Text: as §1

[8] = target: T8, JNK1 (Homo sapiens, UniProt P45983); assay: scanMAX Kinase analysis panel (DiscoverX); assay type: binding; conditions: 1 μM in DMSO
T8 construct: purchased DiscoverX
Text: as §1

[9] = target: T9, cSNK1D (Homo sapiens, UniProt P48730); assay: scanMAX Kinase analysis panel (DiscoverX); assay type: binding
T9 construct: purchased DiscoverX
T9 sequence (P48730 whole entry): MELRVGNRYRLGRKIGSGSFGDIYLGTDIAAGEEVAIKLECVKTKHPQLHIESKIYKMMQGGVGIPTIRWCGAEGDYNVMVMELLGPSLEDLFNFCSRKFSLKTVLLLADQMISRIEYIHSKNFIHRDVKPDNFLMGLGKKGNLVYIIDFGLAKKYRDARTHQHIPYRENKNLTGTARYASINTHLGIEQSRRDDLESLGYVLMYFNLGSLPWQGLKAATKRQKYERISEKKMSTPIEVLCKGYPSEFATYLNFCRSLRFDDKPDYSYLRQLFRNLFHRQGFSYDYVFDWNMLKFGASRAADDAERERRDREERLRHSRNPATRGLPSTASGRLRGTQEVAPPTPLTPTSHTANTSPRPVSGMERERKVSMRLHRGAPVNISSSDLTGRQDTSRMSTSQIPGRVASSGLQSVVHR
Text: as §1

[10] = target: T10, LRRK2 (G2019S) (Homo sapiens, UniProt Q5S007, G2019S); assay: scanMAX Kinase analysis panel (DiscoverX); assay type: binding; conditions: 1 μM in DMSO
T10 construct: purchased DiscoverX
Text: as §1

[11] = target: T11, ERK5 (Homo sapiens, UniProt Q13164); assay: scanMAX Kinase analysis panel (DiscoverX); assay type: binding; conditions: 1 μM in DMSO
T11 construct: purchased DiscoverX scanMAX Kinase analysis panel
T11 sequence (Q13164 whole entry): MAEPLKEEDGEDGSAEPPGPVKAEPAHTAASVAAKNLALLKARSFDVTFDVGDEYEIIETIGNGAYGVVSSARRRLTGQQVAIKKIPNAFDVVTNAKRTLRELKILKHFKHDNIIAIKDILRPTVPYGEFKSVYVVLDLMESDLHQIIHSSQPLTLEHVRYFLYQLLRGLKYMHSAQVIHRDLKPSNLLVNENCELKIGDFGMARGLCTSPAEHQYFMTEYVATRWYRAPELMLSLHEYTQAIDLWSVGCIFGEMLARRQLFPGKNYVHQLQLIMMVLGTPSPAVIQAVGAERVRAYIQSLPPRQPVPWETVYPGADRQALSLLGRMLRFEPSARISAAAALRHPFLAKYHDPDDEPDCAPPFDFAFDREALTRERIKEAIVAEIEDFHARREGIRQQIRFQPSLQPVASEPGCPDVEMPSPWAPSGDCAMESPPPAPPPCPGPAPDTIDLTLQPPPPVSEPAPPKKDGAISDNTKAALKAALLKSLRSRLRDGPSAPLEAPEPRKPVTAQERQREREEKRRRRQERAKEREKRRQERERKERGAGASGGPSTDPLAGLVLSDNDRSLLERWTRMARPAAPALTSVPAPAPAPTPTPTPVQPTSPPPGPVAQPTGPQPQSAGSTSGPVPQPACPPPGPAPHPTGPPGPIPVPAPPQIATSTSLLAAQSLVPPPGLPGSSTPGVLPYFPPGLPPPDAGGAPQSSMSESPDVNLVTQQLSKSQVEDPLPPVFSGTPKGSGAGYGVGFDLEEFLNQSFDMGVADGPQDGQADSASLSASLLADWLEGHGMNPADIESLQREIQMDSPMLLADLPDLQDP
Text: as §1

[12] = target: T12, HUNK (Homo sapiens, UniProt P57058); assay: scanMAX Kinase analysis panel (DiscoverX); assay type: binding; conditions: 1 μM in DMSO
T12 construct: purchased DiscoverX scanMAX Kinase analysis panel
T12 sequence (P57058 whole entry): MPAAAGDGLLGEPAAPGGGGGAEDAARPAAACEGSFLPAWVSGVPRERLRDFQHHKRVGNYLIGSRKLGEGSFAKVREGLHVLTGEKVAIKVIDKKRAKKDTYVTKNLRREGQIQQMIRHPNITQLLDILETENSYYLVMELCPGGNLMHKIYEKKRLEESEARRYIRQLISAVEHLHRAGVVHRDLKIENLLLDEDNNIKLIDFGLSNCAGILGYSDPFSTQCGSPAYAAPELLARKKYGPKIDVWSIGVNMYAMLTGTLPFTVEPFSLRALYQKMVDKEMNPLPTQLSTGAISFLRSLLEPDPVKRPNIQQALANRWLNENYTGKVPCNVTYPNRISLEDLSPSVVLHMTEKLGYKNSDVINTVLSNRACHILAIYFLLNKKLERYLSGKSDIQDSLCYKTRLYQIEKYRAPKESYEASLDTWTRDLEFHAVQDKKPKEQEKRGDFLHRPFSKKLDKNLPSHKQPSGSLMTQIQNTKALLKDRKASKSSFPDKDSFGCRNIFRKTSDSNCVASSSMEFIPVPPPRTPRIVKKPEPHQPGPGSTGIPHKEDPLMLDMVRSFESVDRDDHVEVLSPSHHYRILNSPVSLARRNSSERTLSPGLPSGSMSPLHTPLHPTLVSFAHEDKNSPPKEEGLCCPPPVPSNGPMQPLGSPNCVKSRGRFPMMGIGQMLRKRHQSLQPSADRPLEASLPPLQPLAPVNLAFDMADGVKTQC
Text: as §1

[13] = target: T13, INSR (Homo sapiens, UniProt P06213); assay: scanMAX Kinase analysis panel (DiscoverX); assay type: binding; conditions: 1 μM in DMSO
T13 construct: purchased DiscoverX scanMAX Kinase analysis panel
T13 sequence (P06213 28-1382): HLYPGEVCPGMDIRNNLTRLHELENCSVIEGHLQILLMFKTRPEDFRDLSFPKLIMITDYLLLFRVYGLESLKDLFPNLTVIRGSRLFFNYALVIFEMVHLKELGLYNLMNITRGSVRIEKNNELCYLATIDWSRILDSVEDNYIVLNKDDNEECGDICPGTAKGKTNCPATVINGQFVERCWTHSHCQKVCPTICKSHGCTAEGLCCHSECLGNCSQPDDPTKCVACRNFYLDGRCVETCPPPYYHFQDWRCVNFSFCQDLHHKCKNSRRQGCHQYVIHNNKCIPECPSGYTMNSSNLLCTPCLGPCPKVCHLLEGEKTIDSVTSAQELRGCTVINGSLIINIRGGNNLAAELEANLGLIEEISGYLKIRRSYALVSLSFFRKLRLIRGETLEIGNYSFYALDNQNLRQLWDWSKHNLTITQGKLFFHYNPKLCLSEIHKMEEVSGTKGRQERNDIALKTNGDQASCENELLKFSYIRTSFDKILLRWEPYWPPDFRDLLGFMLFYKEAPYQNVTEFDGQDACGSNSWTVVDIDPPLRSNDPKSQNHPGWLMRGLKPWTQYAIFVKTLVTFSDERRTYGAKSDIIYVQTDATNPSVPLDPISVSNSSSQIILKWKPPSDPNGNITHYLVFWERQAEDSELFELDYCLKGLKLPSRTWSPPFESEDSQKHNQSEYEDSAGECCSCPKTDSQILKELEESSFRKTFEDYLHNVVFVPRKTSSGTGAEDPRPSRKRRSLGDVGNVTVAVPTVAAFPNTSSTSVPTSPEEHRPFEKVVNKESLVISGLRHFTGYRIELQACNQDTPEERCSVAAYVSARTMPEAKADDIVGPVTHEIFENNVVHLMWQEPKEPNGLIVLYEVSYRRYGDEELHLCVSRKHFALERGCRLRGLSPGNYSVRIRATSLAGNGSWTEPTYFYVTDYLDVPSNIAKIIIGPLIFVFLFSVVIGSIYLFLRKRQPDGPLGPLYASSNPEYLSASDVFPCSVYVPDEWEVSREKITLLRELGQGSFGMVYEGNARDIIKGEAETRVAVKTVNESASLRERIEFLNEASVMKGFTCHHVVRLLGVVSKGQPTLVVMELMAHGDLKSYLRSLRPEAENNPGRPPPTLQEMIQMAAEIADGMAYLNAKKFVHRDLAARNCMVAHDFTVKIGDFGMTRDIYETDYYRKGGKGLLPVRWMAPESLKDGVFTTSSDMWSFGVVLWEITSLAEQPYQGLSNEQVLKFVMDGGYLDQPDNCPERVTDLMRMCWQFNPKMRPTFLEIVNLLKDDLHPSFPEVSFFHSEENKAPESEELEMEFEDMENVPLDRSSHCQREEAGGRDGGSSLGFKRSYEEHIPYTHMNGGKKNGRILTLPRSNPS
Text: as §1

[14] = target: T14, JNK2 (Homo sapiens, UniProt P45984); assay: scanMAX Kinase analysis panel (DiscoverX); assay type: binding; conditions: 1 μM in DMSO
T14 construct: purchased DiscoverX scanMAX Kinase analysis panel
T14 sequence (P45984 whole entry): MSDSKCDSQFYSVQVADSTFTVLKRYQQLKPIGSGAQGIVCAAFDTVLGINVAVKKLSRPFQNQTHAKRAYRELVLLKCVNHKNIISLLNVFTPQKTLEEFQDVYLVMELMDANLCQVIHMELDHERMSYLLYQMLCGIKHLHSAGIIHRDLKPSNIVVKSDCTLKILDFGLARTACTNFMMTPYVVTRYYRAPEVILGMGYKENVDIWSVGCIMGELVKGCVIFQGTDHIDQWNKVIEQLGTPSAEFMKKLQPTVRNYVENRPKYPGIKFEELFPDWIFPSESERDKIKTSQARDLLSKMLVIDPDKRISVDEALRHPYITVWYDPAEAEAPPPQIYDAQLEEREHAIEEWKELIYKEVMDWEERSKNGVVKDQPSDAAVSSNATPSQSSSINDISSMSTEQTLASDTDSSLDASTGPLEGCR
Text: as §1

[15] = tested on: Ba/F3 EGFR L858R/T790M/C797S cells; assay: Cell growth inhibition, celltiterglo; assay type: cell-based; conditions: 72 hours, concomitant use with Osimertinib, compared with same amount of Harmine, FIG. 8
Protocol: The cells were treated for 72 hours using a serially diluted compound. The cell activity inhibition results for the compounds were measured using celltiterglo.

[16] = tested on: NCI-H1975 lung cancer cells; assay: Anticancer effect in mouse model with NCI-H1975 lung cancer cells; assay type: in vivo, Balb/c Nude Mice
Protocol: The NCI-H1975 cell line was purchased from the Institute of Biochemistry and Cell Biology (Shanghai Institutes for Biological Sciences, CAS). Cells were kept in RPMI-1640 containing 10% FBS, and cultured in a 37° C. humidified cell culture incubator at 5% CO2. All animal experiments were carried out according to the Animal Use and Management Guidelines of Shanghai Medicilon Inc. […] Tumor size and animal body weight were measured twice weekly, and clinical symptoms were recorded daily. The mice will be administered individually according to most recent body weight. The tumors were measured using calipers using two measurements, length (a) and width (b). The volume of the tumors was calculated individually as follows, from the two measured diameters of the tumors: tumor volume (mm^3)=(a×b^2)/2.

[17] = tested on: 3LL lung cancer; assay: Anticancer effect in 3LL lung cancer transplant mouse model; assay type: in vivo, female C57BL/6 mouse
Protocol: The 3LL cells were cultured in Hams F10:L15=3:7 culture medium, the EMT-6 cells were cultured in Waymouth's MB 752/1 culture medium, and the MC38 cells were cultured in a DMEM culture medium with 10% FBS and 1% penicillin streptomycin, at 37° C. in a 5% CO2 humidified cell culture incubator.
The mouse PD-1 antibody (BE-0146), PD-L1 antibody (BE-0101), and CTLA-4 antibody (BE-0131) were purchased from BioXcell.
All animal tests were carried out through WuXi AppTec.

[18] = tested on: NCI-H2228; assay: EGFR expression and signalling after treatment, western blot; assay type: cell-based; conditions: FIG. 7
Protocol: (§2) For the Ba/F3 EGFR L858R/T790M/C797S cell line, Ba/F3 naive cells purchased from DSMZ were transfected with EGFR L858R/T790M/C797S […] DNA using lipofectamine, and a cell line selected using 1 μg/ml puromycin for 2 weeks was used. Here, the culture medium used was RPMI-1640 with 10% FBS and 1% penicillin streptomycin. The NCI-H2228 and CAL-27 cell lines were purchased from ATCC, and for culturing RPMI-1640 with 10% FBS and 1% penicillin streptomycin was used for NCI-H2228, while for CAL-27 DMEM with 10% FBS and 1% penicillin streptomycin was used.
(§3) As needed, culturing was performed for 1 hour with Cyclohexamine at 30 μg/mL concentration, followed by 15 minutes EGF treatment at a concentration of 100 ng/mL. For the phosphoarray experiment, DYRK1a siRNA was reacted with HEK293T cells for 48 hours at 30 nM concentration, confirming inhibition of DYRK1a expression in the cells. These were used as the control for the main experiment.

[19] = tested on: Ba/F3 EGFR L858R/T790M/C797S; assay: EGFR expression after treatment, western blot; assay type: cell-based; conditions: 0.5, 1.2 and 5 μM, 4 or 24 hours, FIG. 7
Protocol: as §2, §3

[20] = tested on: PC-9 cell line; assay: Lung cancer cell colony formation inhibition; assay type: cell-based, human; conditions: concomitant treatment with Gefitinib or Osimertinib, vs single treatment or Harmine, from 10 days, FIG. 1
Text: Specifically, the PC-9 cell line was purchased from the ECACC (European Collection of Authenticated Cell Cultures), and RPMI-1640 with 10% FBS and 1% penicillin streptomycin was used. PC-9GR cells cultured with slow and sustained exposure to Gefitinib (manufactured by Selleckchem) were serially cultured with 1 μmol/L Gefitinib.
The remaining colony-forming cells were fixed with methanol (1%) and formaldehyde (1%), then dyed with 0.5% crystal violet before photographing each well.

inhibition at 1 µM [1]: ≥ 59%
inhibition at 1 µM [2]: 40 to 59%
inhibition at 1 µM [3]: 40 to 59%
inhibition at 1 µM [4]: ≥ 59%
inhibition at 1 µM [5]: 40 to 59%
inhibition at 1 µM [6]: 40 to 59%
inhibition at 1 µM [7]: ≥ 59%
inhibition at 1 µM [8]: ≥ 59%
inhibition at 1 µM [9]: ≥ 59%
inhibition at 1 µM [10]: ≥ 59%
inhibition at 1 µM [11]: 40 to 59%
inhibition at 1 µM [12]: 40 to 59%
inhibition at 1 µM [13]: 40 to 59%
inhibition at 1 µM [14]: 40 to 59%
SMILES: CCNc1cc(Nc2ccc(C(=O)N3CCC(N4CCOCC4)CC3)cc2OC)nc2[nH]cc(C(F)(F)F)c12 [Compound 1, (4-((4-(ethylamino)-3-(trifluoromethyl)-1H-pyrrolo[2,3-b]pyridine-6-yl)amino)-3-methoxyphenyl) (4-morpholinopiperidine-1-yl)methanone]
cell growth inhibition effect [15]: improved cell growth inhibition effect compared to treatment with the same amount of Harmine
anticancer effect ([16]; Compound 1 40 or 60 mg/kg concomitant with Osimertinib 3.5 mg/kg, PO QD, vs Osimertinib alone, FIG. 5): substantially reduced lung cancer (NCI-H1975) cells
anticancer effect ([16]; singular treatment with Compound 1, 60 mg/kg PO QD): no anticancer effect
tumor suppression effect ([17]; concomitant with PD-1, PD-L1 and CTLA-4 antibodies 10 mg/kg IP BIW, FIG. 6b): improved concomitant effect
tumor suppression effect ([17]; singular treatment, 45, 60, 75 mg/kg po BID, FIG. 6a): insignificant tumor suppression effect
EGFR expression ([18]; 0.5, 1.2 and 5 μM, 4 or 24 hours): reduced EGFR expression
p-AKT (S473) [18]: reduction
p-Erk 1/2 (T202/Y204) [18]: reduction
EGFR expression [19]: reduced EGFR expression
colony formation inhibition [20]: substantially inhibit formation of lung cancer cell colonies
